The subject of the assay is anti-CETP monoclonal antibody (detects the CETP-derived amino acid sequence FGFPEHLLVDFLQSLS). Briefly: ELISA screening of peptide libraries with anti-CETP monoclonal antibody for mimotope identification. It is filed as binding. To be noted: 7 mer / 8 mer peptide libraries. From the text: The problem of the anti-CETP vaccine approach discussed above is that the vaccine formulation comprises a self peptide and therefore must break natural tolerance against self antigens. The invention describes a CETP mimotope that can be used for vaccination: The mimotope shall induce the production of antibodies against CETP. […] Thus, the induction of an anti-CETP antibody response is greatly facilitated. The mimotope is identified with a monoclonal antibody (mAb) and (commercially available) peptide libraries (e.g. according to 16). An anti-CETP monoclonal antibody is used that neutralizes CETP activity (17). This mAb detects a sequence within the C-terminal 26 amino acids of CETP necessary for neutral lipid transfer activity (18).
One monoclonal antibody used for the mimotope identification detects the CETP-derived amino acid sequence […] (=original epitope).
The mimotope has a preferred length of 5 to 15 amino acids. Two different libraries are used in ELISA assays to define mimotope sequences.
Library 1: This 7 mer library contains peptides with the following sequences (amino acid positions 1 to 7):
Library 2: This 8 mer library contains peptides with the following sequences (amino acid positions 1 to 8):
Position 1: all natural aa except of C (19 possibilities) Position 2: all natural aa except of C (19 possibilities) Position 3: all natural aa except of C (19 possibilities) Position 4: all natural aa except of C (19 possibilities) Position 5: all natural aa except of C (19 possibilities) Position 6: all natural aa except of C (19 possibilities) Position 7: all natural aa except of C (19 possibilities) Position 8: all natural aa except of C (19 possibilities)
Background: An ELISA detects its analyte on a solid surface through an enzyme-linked reagent.
As for AAQKDKVP [8 mer peptide, CETP mimotope], the “mimotope detected by monoclonal antibody” value was “detected by a monoclonal antibody”.

Turning to ALKDKLP [7 mer peptide, CETP mimotope], the “mimotope detected by monoclonal antibody” value was “detected by a monoclonal antibody”.

Consider ALKDKVP [7 mer peptide, CETP mimotope], for which the “mimotope detected by monoclonal antibody” value is reported as “detected by a monoclonal antibody”.

With ALKGKIP [7 mer peptide, CETP mimotope], the “mimotope detected by monoclonal antibody” value is given as “detected by a monoclonal antibody”.

On to ALKHKIP [7 mer peptide, CETP mimotope], for which the “mimotope detected by monoclonal antibody” value is reported as “detected by a monoclonal antibody”.

On to ALKHKVP [7 mer peptide, CETP mimotope], for which the “mimotope detected by monoclonal antibody” value was “detected by a monoclonal antibody”.

For ALKNKIP [7 mer peptide, CETP mimotope], the “mimotope detected by monoclonal antibody” value was “detected by a monoclonal antibody”.

Turning to ALKNKLP [7 mer peptide, CETP mimotope], the “mimotope detected by monoclonal antibody” value is “detected by a monoclonal antibody”.

ALKSKIP [7 mer peptide, CETP mimotope]: the “mimotope detected by monoclonal antibody” value is listed as “detected by a monoclonal antibody”.

With ALKYKLP [7 mer peptide, CETP mimotope], the “mimotope detected by monoclonal antibody” value is “detected by a monoclonal antibody”.

Consider AVKGKLP [7 mer peptide, CETP mimotope], for which the “mimotope detected by monoclonal antibody” value was “detected by a monoclonal antibody”.

These data come from patent US20090104211A1, “Treatment of atherosclerosis” (AFFIRIS Forschungs-und Entwicklungs GmbH, priority 2004, published 2009).
